Test results as given in patent publication US5364631A, “Tocopherol-based pharmaceutical systems” (The Liposome Company, Inc., priority 1993, dated 1994).
Each block holds one molecule with its values, some of them ahead of it.

Tests used:
[1] = stabilization of THS into the bilayer phase at acidic pH (detergent/surfactant screening)
Description: Stabilizers are defined as compounds which allow the formation and/or maintenance of the bilayer state of d-alpha-tocopherol acid succinate based liposomes in an acidic pH environment.

[2] = cited from earlier work
[3] = cited from earlier work; remark: listed apart in the source
[4] = freeze fracture electron microscopy / appearance of THS bilayers, effect of pH; format: physicochemical
Experimental: Characterizing the pH-dependent polymorphic nature of the THS is of importance in designing drug delivery systems comprising THS.
An aliquot (0.1-0.3 ul) of the 10% THS vesicle specimen was sandwiched between a pair of Balzers (Nashua, NH) copper support plates and rapidly plunged from 23° C. into liquid propane. Samples were fractured and replicated on a double replicating device in a Balzers freeze-fracture unit at a vacuum of 2×10^-6 mbar or better and at -115° C. Replicas were floated off in 3N HNO3, followed by washing in a graded series of Chlorox solutions. These were finally cleaned in distilled water and picked up on 300 Hex mesh copper grids (Polysciences, PA). Replicas were viewed on a Philips 300 electron microscope at a magnification of 22,000 times.

stabilization of THS into the bilayer phase [1]: do not stabilize the preparations
Molecule: sorbitan monopalmitate

Molecule: Cc1c(C)c2c(c(C)c1OC(=O)CCC(=O)O)CCC(C)(CCCC(C)CCCC(C)CCCC(C)C)O2 (centres unmarked) [t-THS, tris(hydroxymethyl)aminomethane)-tocopherol hemisuccinate]
trapping efficiency of closed multilamellar vesicles ([2]; physiological pH): high trapping efficiencies

Molecule: CC[C@@H]1C(=O)OC[C@@H]1Cc1cncn1C [pilocarpine]
chemical stability at high pH ([3]; high pH, base-catalyzed hydrolysis): unstable at high pH
chemical stability at lower pH ([3]; lower pH (protonated)): more stable
chemical stability in pilocarpine and THS mixtures ([3]; pH values around 7.0): chemically unstable

Molecule: Cc1c(C)c2c(c(C)c1OC(=O)CCC(=O)O)CC[C@@](C)(CCC[C@H](C)CCC[C@H](C)CCCC(C)C)O2 [THS, d-alpha-tocopherol acid succinate]
pH range in which aqueous suspensions are in the bilayer phase ([2]; aqueous suspension): 6.0-9.0 pH
phase formed on lowering the pH below about 6.0 or introducing divalent cations ([2]; pH below about 6.0 or Mg++ or Ca++): produces vesicle aggregation and fusion, and induces hexagonal phase (hexII) formation
precipitation upon lowering the pH ([4]; lowered pH, no stabilizer): precipitates resembling hexII phase lipid are formed
vesicle morphology by freeze fracture electron microscopy ([4]; pH 7.0): heterogenous population of multilamellar and unilamellar vesicles

stabilization of THS into the bilayer phase [1]: do not stabilize the preparations
Molecule: sorbitan monolaurate

stabilization of THS into the bilayer phase [1]: do not stabilize the preparations
Molecule: CCCCCCCCCCCCCCCCCC(=O)OCC(O)CO (centres unmarked) [glycerol monostearate]
